Measured values from patent US20180258069A1, “NEW CRYSTAL OF PIPERAZINE COMPOUND” (TAIHO PHARMACEUTICAL CO., LTD., priority 2015, published 2018).

Key:
[1] = target: hematopoietic prostaglandin D synthase (H-PGDS) (Homo sapiens, UniProt O60760); details: disclosed in Patent Document 1; cited from earlier work
[2] = Dynamic vapor sorption (DVS) system analysis (moisture adsorption-desorption test); format: physicochemical; details: 25° C., 5% to 95% RH
Method: Dynamic vapor sorption (DVS) system analysis was performed under the following conditions.
Device: VTI SGA-100, TA Instruments
Sample: about 10 mg Measurement temperature: 25° C. RH steps: 5-95-1% RH by 5% RH
Hygroscopic properties of crystals I and II obtained in the Examples were confirmed by dynamic vapor sorption (DVS) system analysis.
The adsorption and desorption data was collected at 5% RH intervals in a range of relative humidity (RH) of 5% to 95%. Before the measurement, the samples were heated under nitrogen purging to 25° C. at 1° C./min, followed by drying for up to 6 hours until the weight change in 5 minutes became less than 0.0100%. The measurement was performed with equilibration for up to 2 hours until the weight change in 5 minutes became less than 0.0100%.

[3] = Solid stability test (40° C., under light shielding), chemical purity by HPLC; format: physicochemical
Method: Using crystal I obtained in the Examples, the solid stability after storage at 40° C. under light shielding was measured.
Storage conditions: crystal I was stored at 40° C. after being placed in a light shielding bottle covered with a lid. Measurement points: after 1 month, after 3 months, after 6 months
The amount of analog in the sample solution was measured by HPLC analysis. Handling of the device, including data processing, was performed in accordance with the method and procedures specified for each device (device: 2130-2450, HITACHI).
Column: Mightysil RP-18 GP 150-4.6 (5 μm)
UV detection: 220 nm Column temperature: 40° C. Column flow rate: 1.0 mL/min Mobile phase: A: acetonitrile, B: 10 mM phos. buffer

[4] = Solid stability test (under exposure to light); format: physicochemical; details: for Change of crystal form (powder X-ray crystal analysis): room temperature, after irradiation at 3500000 lux·h (2000 lux×1750 h)
Method: Using crystals I and II obtained in the Examples, the solid stability after storage under exposure to light was measured.
Storage conditions: crystal I was stored at room temperature under exposure to light after being placed in a transparent glass dish covered with a lid. Measurement point: after irradiation at 3500000 lux·h (irradiation at 2000 lux×1750 h)
Storage Container: Transparent Glass Dish
The powder X-ray diffraction upon the storage stability test was measured after an appropriate amount of the test substance was lightly pulverized as necessary using an agate mortar under the following test conditions.
Device: MiniFlex II, Rigaku Corporation
X-ray output power: 15 mA, 30 kV Scanning range: 3.0 to 40.0° Step size: 0.010° Scanning speed: […]. Divergence slit: 1.25° Scatter slit: open Receiving slit: open

hematopoietic prostaglandin D synthase (H-PGDS), sequence (O60760 whole entry): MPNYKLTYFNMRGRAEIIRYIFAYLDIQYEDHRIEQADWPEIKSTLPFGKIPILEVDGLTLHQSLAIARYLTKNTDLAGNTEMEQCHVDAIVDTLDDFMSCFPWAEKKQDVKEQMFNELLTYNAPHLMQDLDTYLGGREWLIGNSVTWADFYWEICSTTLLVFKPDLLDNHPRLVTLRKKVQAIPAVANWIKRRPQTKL

Cn1cccc1C(=O)N1CCN(C(=O)Nc2ccc(N3CCC(C(=O)N4CCOCC4)CC3)cc2)CC1 [Compound (1), 4-((1-methylpyrrol-2-yl)-carbonyl)-N-(4-(4-morpholin-1-yl-carbonylpiperidin-1-yl)-phenyl)-1-piperazinecarboxamide]
H-PGDS inhibiting effect [1]: inhibiting effect

Cn1cccc1C(=O)N1CCN(C(=O)Nc2ccc(N3CCC(C(=O)N4CCOCC4)CC3)cc2)CC1 [crystal I, monohydrate of 4-((1-methylpyrrol-2-yl)-carbonyl)-N-(4-(4-morpholin-1-yl-carbonylpiperidin-1-yl)-phenyl)-1-piperazinecarboxamide]
Change in weight due to changes in humidity [2]: no changes in weight
Powder X-ray crystal analysis before and after moisture adsorption and desorption [2]: not changed
Chemical Purity (%) ([3]; After 1 month at 40° C. under light shielding): 99.8%
Chemical Purity (%) ([3]; After 3 months at 40° C. under light shielding): 99.6%
Chemical Purity (%) ([3]; After 6 months at 40° C. under light shielding): 99.9%
Chemical Purity (%) ([3]; Initial Value, before storage): 99.8%
Change of chemical purity after storage ([3]; storage at 40° C. under light shielding): not changed
Chemical purity after long-term storage under exposure to light [4]: not decreased
Change of crystal form (powder X-ray crystal analysis) [4]: not changed

Cn1cccc1C(=O)N1CCN(C(=O)Nc2ccc(N3CCC(C(=O)N4CCOCC4)CC3)cc2)CC1 [crystal II, 4-((1-methylpyrrol-2-yl)-carbonyl)-N-(4-(4-morpholin-1-yl-carbonylpiperidin-1-yl)-phenyl)-1-piperazinecarboxamide]
Change in weight due to changes in humidity [2]: great change in weight
Powder X-ray crystal analysis before and after moisture adsorption and desorption [2]: not changed
Chemical purity after long-term storage under exposure to light [4]: not decreased
Change of crystal form (powder X-ray crystal analysis) [4]: changed
